Assay results as given in patent US20230257429A1, “PEPTIDE ADJUVANT FOR ITS THERAPEUTIC APPLICATIONS IN VIRAL AND TUMOUR VACCINE DEVELOPMENT AND CANCER IMMUNOTHERAPY AND AUTOIMMUNE DISEASE DIAGNOSIS AND TREATMENTS” (National University of Singapore, priority 2020, published 2023).
Peptide text beside a SMILES is read from it.

What was measured:
[1] = system: red blood cells (RBC); test: Hemolytic assay; type: cell-based, human; settings: 1 hr at 37° C., normalized to Triton X-100
Experimental: Buffy coats were used as a source of red blood cells (RBC). Buffy coat (2 ml) was washed first in 10 ml of 150 mM NaCl and then washed twice in PBS (pH 7.4) by centrifugation for 5 min at 500 g. The cell pellets were resuspended in 10 ml of PBS as RBC stocks. The different peptides were diluted in PBS (100 μg/ml) and, in triplicates, the peptides were added to V-bottom 96-well plates at 10 μl/well. As controls, the same volumes of PBS or 20% (v/v) Triton X-100 were added. RBC were diluted 50 times in PBS and added to the plates at 190 μl/well. After incubation for 1 hr at 37° C., the plates were centrifuged for 5 min at 500 g. The supernatants (100 μl/well) were transferred to flat bottom plates and absorbance was measured at OD405. Data were normalized to the average OD405 readings obtained with 1% (v/v) Triton X-100 and presented as percentage hemolysis.

[2] = system: monocytes; test: Monocyte activation, TNFα and IL-1β ELISA; type: cell-based, human
Experimental: (§1) Buffy coat fractions were obtained from healthy blood donors at the Singapore Health Sciences Authority, with Institutional ethics approval, and PBMC were isolated using Ficoll-Paque (GE Healthcare). To isolate monocytes, PBMC were re-suspended to 1×10^7 cells/ml in the RPMI medium contained 5% (v/v) BCS and incubated for 1 hr in T75 flasks (20 ml/flask). Monocytes that adhered were harvested. To culture macrophages and DC [Cao, W., et al., Blood 107: 2777-2785, (2006), incorporated herein by reference], monocytes were resuspended to 1×10^6 cells/ml and cultured in 6-well plates (2 ml/well). Macrophages were cultured by adding M-CSF to 20 ng/ml and DC were cultured with 20 ng/ml GM-CSF and 40 ng/ml IL-4. M-CSF, GM-CSF and IL-4 were obtained from R&D Systems (Mineapolis, Minn.). Cells were cultured for 6 days with half of the media being replenished every two days.
[…] Where TLR ligands were used to stimulate these cells, they were added to the media: LPS (500 ng/ml for DC and macrophages and 10 ng/ml for PMBC and monocytes, InvivoGen), flagellin (1 μg/ml, InvivoGen), lipoteichic acid (LTA, 10 μg/ml). Cell activation was determined by measuring TNFα and IL-1β in the culture media using ELISA kits (Invitrogen).

[3] = biological target: T1, TLR2 (Homo sapiens, UniProt O60603); test: TLR2 binding assay (ELISA plate); set-up: purchased R&D Systems; settings: TLR2 coated 2 μg/ml
Target sequence in this assay (O60603 21-590 limits assumed): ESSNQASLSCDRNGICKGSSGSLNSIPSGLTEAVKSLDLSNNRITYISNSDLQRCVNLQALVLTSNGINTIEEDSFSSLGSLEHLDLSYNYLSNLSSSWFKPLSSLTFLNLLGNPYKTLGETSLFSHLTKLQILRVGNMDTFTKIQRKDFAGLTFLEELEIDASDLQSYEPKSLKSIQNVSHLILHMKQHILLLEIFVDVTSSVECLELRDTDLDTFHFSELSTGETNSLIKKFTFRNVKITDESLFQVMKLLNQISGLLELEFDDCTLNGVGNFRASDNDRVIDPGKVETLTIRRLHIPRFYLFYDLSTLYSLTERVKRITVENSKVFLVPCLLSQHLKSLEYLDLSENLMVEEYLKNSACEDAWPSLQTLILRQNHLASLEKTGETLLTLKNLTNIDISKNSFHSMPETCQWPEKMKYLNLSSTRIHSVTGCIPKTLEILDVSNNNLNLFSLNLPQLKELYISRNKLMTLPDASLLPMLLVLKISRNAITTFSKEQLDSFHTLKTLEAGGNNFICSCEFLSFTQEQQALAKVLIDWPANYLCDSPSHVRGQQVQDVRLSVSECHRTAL

[4] = system: PBMC; test: Peptide binding to and penetration of PBMC, flow cytometry; type: cell-based, human; settings: for cell surface binding of peptide at 37° C.: PBMC gated for monocytes, B cells, T cells; for cell surface binding of peptide at 37° C. / intracellular peptide at 37° C.: 1 hr; for intracellular peptide at 4° C.: B cells and T cells, permeabilized; for intracellular peptide at 37° C.: permeabilized cells
Experimental: PBMC re-suspended in 100 μl macrophage serum free media (3×10^6/ml) were incubated with different peptides (200 μg/ml). PBMC (100 μl) were incubated with the peptides for 1 hr at 37° C. or 4° C. Cells were washed twice in 2% FBS/PBS and incubated with streptavidin-AF488 and Zombie (NIR) Fixable viability stain-APC-Cy7 for 30 min at 4° C. Cells were then fixed with 1% PFA for 30 min at room temperature and analysed using the Fortessa analyser (BD). In some experiments, PBMC were, after incubation with peptides, incubated with Zombie (NIR) Fixable viability stain (APC-Cy7) for 30 min at 4° C. Cells were then fixed and permeabilized with BD CYTOFIX/CYTOPERM™ Kit for 20 min at 4° C., and then incubated with streptavidin-AF488 for 30 min at 4° C. In some experiments, PBMC were, after incubation with the peptides, stained with fluorescent mouse antibodies specific for monocytes (CD14/BV711), T cells (CD3/PerCP-Cy5-5) and B cells (CD19/Pacific blue). Cells were then stained with Zombie (NIR) Fixable viability stain-APC-Cy7 and streptavin-AF488, with or without membrane permeabilization. In these experiments, monocytes, T cells and B cells were separately gated to detect surface peptide binding and intracellular peptide penetration.

[5] = system: dendritic cells (DC) and macrophages; settings: Wu et al. 2021; cited from earlier work
[6] = biological target: T1, TLR2; test: TLR and NF-κB-luciferase assay in 293T cells, TLR2/TLR1/TLR6/TLR10; type: cell-based; set-up: expressed in transfected cells; host or cells: human embryonic kidney 293T cells
Experimental: TLR-mediated NF-κB activation was determined using a Dual Luciferase Reporter Assay (Promega), in which two luciferase reporter plasmids were used. […] Transfection was performed using the TurboFect Transfection Reagent (Thermo Fisher Scientific). After 24 hr, cells were harvested and cultured for 24 hr in 96-well plates coated with the purified proteins or, as controls, cultured in blank plates but stimulated with TLR ligands. Cells were lysed to measure both firefly and Renilla luciferase activities and, in each sample, the firefly activity was normalized to the Renilla luciferase activity and expressed as relative NF-κB activation.
TLRs and, where it required, co-receptors were co-transfected in a total of 4 combinations, i.e. TLR2/1/6/10, TLR4/CD14/MD2, TLR5, or TLR3/7/8/9. Two luciferase expression vectors were used: one expresses the firefly luciferase under 5 repeats of the NF-κB gene promoter and the other expresses the Renilla luciferase under the constitutively active CMV promoter (FIG. 3A).
Target sequence in this assay (O60603 21-784): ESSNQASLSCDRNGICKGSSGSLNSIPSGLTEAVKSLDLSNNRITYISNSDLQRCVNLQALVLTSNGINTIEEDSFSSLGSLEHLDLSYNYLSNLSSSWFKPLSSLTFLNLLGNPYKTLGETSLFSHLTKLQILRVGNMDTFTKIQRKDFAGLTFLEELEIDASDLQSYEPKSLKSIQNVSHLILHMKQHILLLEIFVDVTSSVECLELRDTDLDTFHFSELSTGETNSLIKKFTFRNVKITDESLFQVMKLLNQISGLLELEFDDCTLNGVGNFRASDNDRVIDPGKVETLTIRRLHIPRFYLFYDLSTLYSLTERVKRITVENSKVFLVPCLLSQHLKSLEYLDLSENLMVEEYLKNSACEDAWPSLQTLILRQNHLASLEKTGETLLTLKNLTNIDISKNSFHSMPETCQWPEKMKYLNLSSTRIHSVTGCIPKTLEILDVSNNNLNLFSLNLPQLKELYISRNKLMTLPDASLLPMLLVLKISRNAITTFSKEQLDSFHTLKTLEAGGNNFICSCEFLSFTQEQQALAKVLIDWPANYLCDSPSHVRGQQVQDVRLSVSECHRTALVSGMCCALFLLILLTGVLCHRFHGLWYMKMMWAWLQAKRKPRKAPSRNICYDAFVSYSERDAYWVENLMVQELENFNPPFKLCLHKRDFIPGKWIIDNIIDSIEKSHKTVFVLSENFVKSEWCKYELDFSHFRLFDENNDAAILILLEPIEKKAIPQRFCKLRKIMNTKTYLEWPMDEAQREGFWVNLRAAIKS

[7] = system: monocytes; test: TLR-blocking antibody pre-incubation before stimulation, TNFα; type: cell-based, human; settings: monocytes pre-incubated with blocking antibody
Experimental: In some experiments, cells were pre-treated with the MyD88 inhibitor st-2825 (MedChemExpress) or the Caspase-1 inhibitor Ac-YVAD (InvivoGen) for 1 hr before stimulation with TLR ligands or the purified nuclear proteins. In some other experiments, cells were pre-incubated for 1 hr with anti-TLR2, TLR4 and TLR5 antibodies (InvivoGen) before stimulation. The optimal st-2825 and Ac-YVAD concentrations were determined based on both their effects on cell viability and LPS-induced cytokine production. Cell viability was determined using the CELLTITER 96® AQueous One Solution Cell Proliferation (MTS) Assay (Promega).
Therefore, TLR2 is clearly a sensing receptor for NCL as well as HMGB1. We then further analyzed the contribution of TLR2, TLR4 and TLR5 to NCL and HMGB1 recognition in their natural cellular contexts. Monocytes were pre-incubated with antibodies that were known to block each of these TLRs and then stimulated with the respective microbial ligands i.e. lipoteichoic acid (LTA), LPS and flagellin (FIG. 3E). […] NCL is a 710-amino acid protein and it is interesting to identify the specific NCL region that activates TLR2.

[8] = biological target: T2, TLR5 (Homo sapiens, UniProt O60602); test: TLR and NF-κB-luciferase assay in 293T cells, TLR5; type: cell-based; settings: protein-coated plates
T2 construct: expressed in transfected cells; host or cells: human embryonic kidney 293T cells
Experimental: (§2) TLR-mediated NF-κB activation was determined using a Dual Luciferase Reporter Assay (Promega), in which two luciferase reporter plasmids were used. One plasmid expresses the firefly luciferase under the regulation of inducible NF-κB promoter and the other plasmid expresses the Renilla luciferase under a constitutively active CMV promoter [Zhang, H., et al., FEBS Lett 532: 171-176 (2002)]. Besides these luciferase vectors, cells were co-transfected with vectors coding for human TLRs or, in the case of TLR4, co-transfected with CD14 and MD2 [according to Zhang, H., et al., J. FEBS Lett 532: 171-176 (2002), incorporated herein by reference]. Transfection was performed using the TurboFect Transfection Reagent (Thermo Fisher Scientific). After 24 hr, cells were harvested and cultured for 24 hr in 96-well plates coated with the purified proteins or, as controls, cultured in blank plates but stimulated with TLR ligands. Cells were lysed to measure both firefly and Renilla luciferase activities and, in each sample, the firefly activity was normalized to the Renilla luciferase activity and expressed as relative NF-κB activation. […]

[9] = system: dendritic cells (DC) and macrophages; test: DC and macrophage activation, cytokine ELISA; type: cell-based, human; settings: protein coated on plates
Experimental: as §1
Purified proteins in PBS (30 μg/ml) were coated in triplicates in 96-well plates (50 μl/well) for 12 hr and PBMC (3×10^6 cells/ml), monocytes (1×10^6 cells/ml), macrophages (0.5×10^6 cells/ml) or DC (0.5×10^6 cells/ml) were re-suspended in macrophage serum-free medium containing penicillin and streptomycin and cultured for 24 hr in these plates at 100 μl/well. […] Cell activation was determined by measuring TNFα and IL-1β in the culture media using ELISA kits (Invitrogen).

[10] = system: PBMC; test: PBMC activation, TNFα and IL-1β ELISA; type: cell-based, human; settings: protein coated on plates, 24 hr, ELISA
Experimental: as §1
Purified proteins in PBS (30 μg/ml) were coated in triplicates in 96-well plates (50 μl/well) for 12 hr and PBMC (3×10^6 cells/ml), monocytes (1×10^6 cells/ml), macrophages (0.5×10^6 cells/ml) or DC (0.5×10^6 cells/ml) were re-suspended in macrophage serum-free medium containing penicillin and streptomycin and cultured for 24 hr in these plates at 100 μl/well. Where TLR ligands were used to stimulate these cells, they were added to the media: LPS (500 ng/ml for DC and macrophages and 10 ng/ml for PMBC and monocytes, InvivoGen), flagellin (1 μg/ml, InvivoGen), lipoteichic acid (LTA, 10 μg/ml). Cell activation was determined by measuring TNFα and IL-1β in the culture media using ELISA kits (Invitrogen).

[11] = system: PBMC; test: PBMC activation, TNFα and IL-1β ELISA; type: cell-based, human; settings: 2.5, 5.0, 10, 14, 18 and 24 hr
[12] = biological target: T3, TLR4/CD14/MD2 (Homo sapiens, UniProt O00206); test: TLR and NF-κB-luciferase assay in 293T cells, TLR4/CD14/MD2; type: cell-based; settings: on top of high TLR4 autoactivation
T3 construct: expressed in transfected cells; host or cells: human embryonic kidney 293T cells
Experimental: as §2

T3 sequence (O00206 24-839): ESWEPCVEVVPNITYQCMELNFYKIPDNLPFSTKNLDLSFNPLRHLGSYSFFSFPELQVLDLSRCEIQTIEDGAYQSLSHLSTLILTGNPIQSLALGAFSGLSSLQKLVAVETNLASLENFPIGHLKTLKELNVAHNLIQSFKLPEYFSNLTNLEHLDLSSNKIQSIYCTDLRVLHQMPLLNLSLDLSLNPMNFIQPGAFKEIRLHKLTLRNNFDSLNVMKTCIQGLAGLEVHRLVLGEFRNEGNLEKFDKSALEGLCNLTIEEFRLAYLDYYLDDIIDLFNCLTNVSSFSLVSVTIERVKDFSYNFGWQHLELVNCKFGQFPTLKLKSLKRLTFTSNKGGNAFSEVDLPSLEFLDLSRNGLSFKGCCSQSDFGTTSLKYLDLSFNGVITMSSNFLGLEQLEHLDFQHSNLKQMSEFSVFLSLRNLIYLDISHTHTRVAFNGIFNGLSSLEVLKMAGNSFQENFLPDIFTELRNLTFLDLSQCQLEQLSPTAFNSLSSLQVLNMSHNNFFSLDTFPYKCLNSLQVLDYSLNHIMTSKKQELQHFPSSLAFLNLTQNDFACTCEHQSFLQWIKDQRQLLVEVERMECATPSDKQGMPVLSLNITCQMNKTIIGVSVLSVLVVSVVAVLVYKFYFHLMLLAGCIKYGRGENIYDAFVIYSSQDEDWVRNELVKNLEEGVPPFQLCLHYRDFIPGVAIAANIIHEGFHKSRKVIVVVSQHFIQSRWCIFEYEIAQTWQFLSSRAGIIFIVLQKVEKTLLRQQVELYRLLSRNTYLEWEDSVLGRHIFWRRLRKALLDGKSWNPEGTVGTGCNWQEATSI
T3 sequence (Q9Y6Y9 19-160 partner): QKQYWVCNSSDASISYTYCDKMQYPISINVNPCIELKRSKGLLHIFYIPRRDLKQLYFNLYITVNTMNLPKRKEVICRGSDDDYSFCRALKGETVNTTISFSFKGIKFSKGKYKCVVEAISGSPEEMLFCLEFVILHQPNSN
T2 sequence (O60602 21-858): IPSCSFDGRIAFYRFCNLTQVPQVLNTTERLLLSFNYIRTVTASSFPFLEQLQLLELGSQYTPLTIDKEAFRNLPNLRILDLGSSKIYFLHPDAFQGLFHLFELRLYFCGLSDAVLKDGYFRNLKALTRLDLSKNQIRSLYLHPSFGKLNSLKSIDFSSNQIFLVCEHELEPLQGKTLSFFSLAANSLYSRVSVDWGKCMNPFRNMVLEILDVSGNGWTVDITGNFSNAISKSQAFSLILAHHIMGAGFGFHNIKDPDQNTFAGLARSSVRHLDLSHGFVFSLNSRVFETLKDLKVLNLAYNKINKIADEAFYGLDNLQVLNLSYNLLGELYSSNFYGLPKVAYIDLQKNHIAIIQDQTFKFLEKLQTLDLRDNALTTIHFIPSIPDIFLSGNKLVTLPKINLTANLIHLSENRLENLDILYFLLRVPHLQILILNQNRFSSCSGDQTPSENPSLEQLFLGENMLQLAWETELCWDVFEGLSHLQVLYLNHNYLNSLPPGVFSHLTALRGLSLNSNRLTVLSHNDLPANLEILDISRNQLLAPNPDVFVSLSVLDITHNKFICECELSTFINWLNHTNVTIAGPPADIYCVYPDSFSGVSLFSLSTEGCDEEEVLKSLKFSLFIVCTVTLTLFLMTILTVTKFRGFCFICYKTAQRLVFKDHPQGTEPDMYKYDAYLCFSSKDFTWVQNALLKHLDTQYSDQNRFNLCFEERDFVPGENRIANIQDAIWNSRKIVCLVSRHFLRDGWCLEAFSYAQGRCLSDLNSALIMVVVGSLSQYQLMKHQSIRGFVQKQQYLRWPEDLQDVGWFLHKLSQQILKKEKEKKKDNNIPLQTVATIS

CC[C@H](C)[C@H](NC(=O)[C@H](CCCNC(=N)N)NC(=O)[C@H](CCCNC(=N)N)NC(=O)[C@H](CCCNC(=N)N)NC(=O)[C@H](CC(C)C)NC(=O)[C@@H](NC(=O)[C@@H](NC(=O)[C@H](CC(C)C)NC(=O)[C@@H](N)CC(C)C)[C@@H](C)CC)[C@@H](C)CC)C(=O)N[C@@H](CCCNC(=N)N)C(=O)N[C@@H](CCCCN)C(=O)N[C@@H](CCC(N)=O)C(=O)N[C@@H](C)C(=O)N[C@@H](Cc1c[nH]cn1)C(=O)N[C@@H](C)C(=O)N[C@@H](Cc1c[nH]cn1)C(=O)N[C@@H](CO)C(=O)N[C@@H](CCCCN)C(=O)O [CPP5, LLIILRRRIRKQAHAHSK] (H-LLIILRRRIRKQAHAHSK-OH)
haemolysis [1]: clearly haemolytic

GGFGGRGGGRGGRGGFGGRGRGGFGGRGGFRGGRGG (NCL-P2)
alarmin activity compared with NCL-P1 ([2]; monocytes): stronger alarmin activity than NCL-P1
cytokine induction, soluble versus coated (immobilized) form ([2]; monocytes, 24 hr): induced more cytokines than immobilized peptides
cytokines induced by plate-coated peptide compared with NCL-P1 ([2]; monocytes, peptides coated on plates): induced more cytokines than NCL-P1
TNFα induced relative to NCL-P1 ([2]; monocytes, soluble peptide 40 μg/ml): approximately 10 fold
TNFα induction from monocytes (7 NCL peptides) ([2]; peptides 50 or 200 μg/ml, 24 hr): induced TNFα
TNFα induction from monocytes at lower concentrations ([2]; soluble peptide 10 and 20 μg/ml): induced little TNFα
TNFα induction from monocytes at higher concentrations ([2]; soluble peptide 80 and 160 μg/ml): strongly induced TNFα production
concentration at which saturated TLR2 binding was reached [3]: 3.2 µg/mL
peptide binding to coated TLR2 ([3]; biotin peptides at increasing concentrations): dose-dependent and saturable binding to TLR2
intracellular pool / cell penetration (CPP activity) in PBMC ([4]; 1 hr at 4° C., fixed/permeabilized, streptavidin-AF488): accumulate intracellular pools
cell surface binding of peptide at 37° C. [4]: the majority of monocytes and smaller fractions of B and T cells
cell surface binding of peptide at 37° C. ([4]; listed as P2): surface binding was only prominent on PBMC and monocytes
intracellular peptide at 4° C. ([4]; monocytes): similarly high intracellular pools of the peptide
intracellular peptide at 4° C. ([4]; monocytes, listed as P2): similarly high levels of intracellular P2 peptide irrespective of the temperature of incubation
surface-bound peptide at 4° C. ([4]; monocytes, compared with 37° C.): increased significantly
intracellular peptide at 37° C. [4]: much higher level of the peptide was detected in all PBMC
intracellular peptide at 37° C. ([4]; listed as P2): similarly high levels of intracellular P2 peptide irrespective of the temperature of incubation
DC activation judged by TNFα induction [5]: activate DC

HMGB1: HMGB1 purified from T×NE as an alarmin control
TLR2 response when expressed without TLR1/TLR6/TLR10 or co-expressed with TLR5 [6]: not significantly affected
NF-κB activation via TLR2/TLR1/TLR6/TLR10 combination ([6]; protein-coated plates, 24 hr): prominent activation
effect of TLR2 antibody on TNFα production induced by the protein [7]: significantly inhibited
effect of TLR4 antibody on TNFα production induced by the protein [7]: significantly inhibited
effect of TLR5 antibody on TNFα production induced by the protein [7]: significantly inhibited
NF-κB activation via TLR5 [8]: consistently activated TLR5
TNFα and IL-1β production from monocytes ([2]; protein coated on plates, 24 hr, ELISA): HMGB1 did
cytokine production from dendritic cells (DC) and macrophages [9]: also induced cytokine production
TNFα and IL-1β production from PBMC [10]: HMGB1 did
kinetics of IL-1β induction from PBMC [11]: rapidly surged to plateau
kinetics of TNFα induction from PBMC [11]: linear early increase but a noticeable late surge
NF-κB activation via TLR4/CD14/MD2 [12]: marginal but significant additional TLR4 activation
